Data reported in article PMC11178805, “Ligand-based design of [^18F]OXD-2314 for PET imaging in non-Alzheimer’s disease tauopathies” (Nature Communications, 2024).

Assay: Dynamic PET imaging with [^18F]OXD-2314 in baboons
Assay type: in vivo
Conditions: for Cerebellum SUV / Cortex SUV / Striatum SUV / Whole Brain SUV: PET time-activity curve, Figure S18; for whole brain peak uptake: n = 1
Experimental: Dynamic PET imaging was performed in a rhesus macaque (macaca mulatta) monkey following the injection of [^18F]OXD-2314 at baseline (104.9 MBq, n = 1) and was repeated in a second [^18F]OXD-2314 study (115.8 MBq, n = 1) where a displacing dose of unlabeled OXD-2314 (0.5 mg/kg) was administered 10 min after [^18F]OXD-2314 injection to verify the absence of specific binding in NHP brain. Venous blood samples were drawn to characterize the metabolic fate of [^18F]OXD-2314 in the macaque. Dynamic [^18F]OXD-2314 PET imaging was also performed in a male (106.6 MBq, n = 1) and a female (115.8 MBq, n = 1) baboon (papio anubis), and venous blood samples were drawn in both baboons to characterize potential effects of sex on radiometabolism. Bilateral regions of interest were defined on 5–8 contiguous axial image planes for the lateral temporal cerebral cortex, cerebellum, striatum, and whole brain, which were used to sample dynamic [^18F]OXD-2314 PET images to determine the time-varying radioactivity concentration expressed in SUV units. [^18F]OXD-2314 readily entered macaque brain (whole brain peak ~2.2 SUV at ~2 min) and distributed uniformly throughout cortical and subcortical grey matter regions (Fig. 5A). […] Radiometabolite analysis of macaque venous blood identified only one, polar radiometabolite, which increased from 37% at 10 min to 77% at 90 min post-injection and was not likely brain penetrant (Figs. S19, S20).
The rate of uptake and clearance of [^18F]OXD-2314 in the brains of a male and a female baboon were compared (Fig. 6A). Initial whole brain uptake was rapid in both baboons, with peak uptake achieved in ~2 min with an SUV of ~2.8 in the male baboon and an SUV of ~1.9 in the female baboon. […] It is not known whether the higher initial brain uptake of [^18F]OXD-2314 observed in a male baboon is due to sex differences, normal physiologic variability, or the additional variability introduced by the effects of anesthesia. No evidence of elevated uptake or retention in the baboon striatum following [^18F]OXD-2314 injection was observed (Fig. S16), a region where high levels of PSP and CBD pathology are expected. Therefore, the normal brain retention patterns of [^18F]OXD-2314 are unlikely to confound the detection of specific signal from PSP and CBD pathology in human subjects.
NHP imaging studies in a male (13 kg) macaca mulata monkey and male (25.7 kg) and female (14.2 kg) papio anubis baboons were carried out in accordance with the guidelines set forth by the Institutional Animal Care and Use Committee at the University of Pittsburgh. Additional details regarding the maintenance of an active environmental enrichment program for the housed NHPs are described in Supplemental Information. Dynamic [^18F]OXD-2314 PET imaging of the brains of the isoflurane anesthetized NHPs was performed using a Siemens Biograph mCT Flow 64-4 R PET/CT scanner ([…], maximum intrinsic spatial resolution of 4.3 mm FWHM[53]. Following a low-dose CT scan for attenuation correction of PET emission data, [^18F]OXD-2314 was injected intravenously and emission data were acquired in list-mode for a period of 90 min. Emission data were binned into a dynamic series of 32 frames (20 sec-10 min) and reconstructed using filtered back projection with Fourier rebinning (FORE + FBP) with standard corrections applied that included attenuation, scatter, electronics dead-time, and physical decay.

## CO[C@H]1CCCN(c2ccc(-c3cc4cc(O)ccc4[nH]3)c([18F])n2)C1 [[^18F]OXD-2314]
Time 2.75 min
  Cerebellum SUV: 3.523 SUV
  Cortex SUV: 3.036 SUV
  Striatum SUV: 3.616 SUV
  Whole Brain SUV: 2.828 SUV
Time 3.25 min
  Cerebellum SUV: 3.2566 SUV
  Cortex SUV: 2.891 SUV
  Striatum SUV: 3.337 SUV
  Whole Brain SUV: 2.7269 SUV
Time 3.75 min
  Cerebellum SUV: 3.5333 SUV
  Cortex SUV: 2.848 SUV
  Striatum SUV: 3.315 SUV
  Whole Brain SUV: 2.707 SUV
Time 4.5 min
  Cerebellum SUV: 3.317 SUV
  Cortex SUV: 2.817 SUV
  Striatum SUV: 3.072 SUV
  Whole Brain SUV: 2.623 SUV
Time 5.5 min
  Cerebellum SUV: 2.973 SUV
  Cortex SUV: 2.612 SUV
  Striatum SUV: 3.02 SUV
  Whole Brain SUV: 2.516 SUV
Time 6.5 min
  Cerebellum SUV: 2.884 SUV
  Cortex SUV: 2.534 SUV
  Striatum SUV: 2.784 SUV
  Whole Brain SUV: 2.429 SUV
Time 8 min
  Cerebellum SUV: 2.424 SUV
  Cortex SUV: 2.368 SUV
  Striatum SUV: 2.423 SUV
  Whole Brain SUV: 2.257 SUV
Time 10 min
  Cerebellum SUV: 2.417 SUV
  Cortex SUV: 2.197 SUV
  Striatum SUV: 2.581 SUV
  Whole Brain SUV: 2.094 SUV
Time 12 min
  Cerebellum SUV: 2.068 SUV
  Cortex SUV: 2.057 SUV
  Striatum SUV: 2.198 SUV
  Whole Brain SUV: 1.998 SUV
Time 14 min
  Cerebellum SUV: 2.062 SUV
  Cortex SUV: 1.889 SUV
  Striatum SUV: 1.943 SUV
  Whole Brain SUV: 1.8928 SUV
Time 17.5 min
  Cerebellum SUV: 1.827 SUV
  Cortex SUV: 1.768 SUV
  Striatum SUV: 1.893 SUV
  Whole Brain SUV: 1.748 SUV
Time 22.5 min
  Cerebellum SUV: 1.519 SUV
  Cortex SUV: 1.5637 SUV
  Striatum SUV: 1.618 SUV
  Whole Brain SUV: 1.572 SUV
Time 27.5 min
  Cerebellum SUV: 1.345 SUV
  Cortex SUV: 1.403 SUV
  Striatum SUV: 1.574 SUV
  Whole Brain SUV: 1.421 SUV
Time 32.5 min
  Cerebellum SUV: 1.261 SUV
  Cortex SUV: 1.245 SUV
  Striatum SUV: 1.235 SUV
  Whole Brain SUV: 1.295 SUV
Time 37.5 min
  Cerebellum SUV: 1.135 SUV
  Cortex SUV: 1.17 SUV
  Striatum SUV: 1.248 SUV
  Whole Brain SUV: 1.205 SUV
Time 42.5 min
  Cerebellum SUV: 1.059 SUV
  Cortex SUV: 1.067 SUV
  Striatum SUV: 1.112 SUV
  Whole Brain SUV: 1.107 SUV
Time 47.5 min
  Cerebellum SUV: 1.003 SUV
  Cortex SUV: 0.9766 SUV
  Striatum SUV: 0.9755 SUV
  Whole Brain SUV: 1.028 SUV
Time 52.5 min
  Cerebellum SUV: 0.8116 SUV
  Cortex SUV: 0.9384 SUV
  Striatum SUV: 0.9527 SUV
  Whole Brain SUV: 0.9734 SUV
Time 57.5 min
  Cerebellum SUV: 0.7605 SUV
  Cortex SUV: 0.8664 SUV
  Striatum SUV: 0.8933 SUV
  Whole Brain SUV: 0.9139 SUV
Time 62.5 min
  Cerebellum SUV: 0.7211 SUV
  Cortex SUV: 0.8233 SUV
  Striatum SUV: 0.8081 SUV
  Whole Brain SUV: 0.8807 SUV
Time 67.5 min
  Cerebellum SUV: 0.724 SUV
  Cortex SUV: 0.803 SUV
  Striatum SUV: 0.7461 SUV
  Whole Brain SUV: 0.8223 SUV
Time 72.5 min
  Cerebellum SUV: 0.6837 SUV
  Cortex SUV: 0.7452 SUV
  Striatum SUV: 0.6547 SUV
  Whole Brain SUV: 0.7875 SUV
Time 77.5 min
  Cerebellum SUV: 0.6351 SUV
  Cortex SUV: 0.7071 SUV
  Striatum SUV: 0.5968 SUV
  Whole Brain SUV: 0.7547 SUV
Time 82.5 min
  Cerebellum SUV: 0.6873 SUV
  Cortex SUV: 0.6833 SUV
  Striatum SUV: 0.7378 SUV
  Whole Brain SUV: 0.7187 SUV
Time 87.5 min
  Cerebellum SUV: 0.5841 SUV
  Cortex SUV: 0.6805 SUV
  Striatum SUV: 0.6765 SUV
  Whole Brain SUV: 0.6934 SUV
Both baboons
  time to peak whole brain uptake: ~ 2 min
Female baboon
  2:90 min SUV ratio: ~ 3.6
  whole brain peak uptake: ~ 1.9 SUV
Male baboon
  2:90 min SUV ratio: ~ 3.7
  whole brain peak uptake: ~ 2.8 SUV
